Patent US6395726B1, “3,6-disubstituted penam sulfone derivatives” (priority 1999, dated 2002)
Like-named read-outs stand apart in the source and are kept apart here. Marks after values point to notes of the source that are not given here.

How the values were obtained:
TEM-1 β-lactamase = TEM-1 β-lactamase (Escherichia coli, UniProt P62593); assay: β-lactamase inhibition, spectrophotometric, nitrocefin substrate; assay type: biochemical
E. coli (TEM-1, Class A) = assay: Microbiological assay, broth MIC in combination with piperacillin; assay type: cell-based; conditions: for MIC (μg/ml; 1:1) E. coli: piperacillin:inhibitor ratio 1:1, broth
Protocol: (§1) Representative compounds according to the present invention were tested in a microbiological assay in combination with the penicillin antibiotic piperacillin. The enhanced combined synergestic antibacterial activity is representative of the β-lactamase inhibitory properties of the compounds of the present invention. In these tests, minimum inhibitory […] (MIC's) are determined in broth using several two-fold dilutions with a 1:1 ratio of piperacillin to inhibitor (N. A. Kuck, N. V. Jacobus, P. J. Peterson, W. J. Weiss, and R. T. Testa, Antibiotic Agents and Chemotherapy, 33:1964-1969 (1989)).

[1] = system: S. marcescens (AmpC, Class C); assay: as above; assay type: cell-based; conditions: for MIC (μg/ml; 1:1) S. marcescens: piperacillin:inhibitor ratio 1:1
Protocol: as §1

AmpC β-lactamase = AmpC β-lactamase (UniProt P18539); assay type: biochemical; conditions: read-out: IC50 (nM) AmpC
[2] = 10 minute preincubation of enzyme with inhibitor at 25° C., nitrocefin substrate, read-out: IC50 (nM) TEM-1
[3] = 10 minute preincubation of enzyme with inhibitor at 25° C., nitrocefin substrate

TEM-1 β-lactamase, sequence (P62593 24-286 limits assumed): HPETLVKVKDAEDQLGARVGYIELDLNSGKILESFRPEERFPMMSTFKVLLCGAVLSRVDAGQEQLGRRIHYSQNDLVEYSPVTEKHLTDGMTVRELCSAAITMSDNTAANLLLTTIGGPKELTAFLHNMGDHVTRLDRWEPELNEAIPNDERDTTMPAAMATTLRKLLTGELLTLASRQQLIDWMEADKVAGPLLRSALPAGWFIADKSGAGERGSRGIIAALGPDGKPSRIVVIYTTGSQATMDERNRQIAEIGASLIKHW

## C[C@]1(Cn2ccnn2)C(C(=O)[O-])N2C(=O)[C@@H](CO)C2S1(=O)=O.[Na+] (some centres unmarked) [Example 1]
TEM-1 β-lactamase
  IC50: 6 nM
E. coli (TEM-1, Class A); strain GC2847, TEM-1 (Class A)
  MIC (μg/ml; 1:1) E. coli: 2^c μg/ml
[1]; strain GC2894, AmpC (Class C)
  MIC (μg/ml; 1:1) S. marcescens: 16^e μg/ml

## C[C@]1(/C=C\C#N)[C@H](C(=O)O)N2C(=O)[C@@H](CO)[C@H]2S1(=O)=O [Example 2 (cis), (Z)-(2S,3S,5R,6R)-6-Hydroxymethyl-3-methyl-3-(3-nitrilo-propenyl)-4,4,7-trioxo-4-lambda(6)-thia-1-azabicyclo[3.2.0]heptane-2-carboxylic acid]
TEM-1 β-lactamase; [2]
  IC50: 19 nM
AmpC β-lactamase; [3]
  IC50: 270 nM
E. coli (TEM-1, Class A); strain GC6265, TEM-1 (Class A)
  MIC (μg/ml; 1:1) E. coli: 4 µg/mL
[1]; strain GC4132, AmpC (Class C)
  MIC (μg/ml; 1:1) S. marcescens: 8 µg/mL

## CON=C[C@@]1(C)[C@H](C(=O)O)N2C(=O)[C@@H](CO)[C@H]2S1(=O)=O [Example 3, (2S,3R,5R,6R)-6-Hydroxymethyl-3-(methoxyimino-methyl)-3-methyl-4,4,7-trioxo-4-lambda(6)-thia-1-aza-bicyclo[3.2.0]heptane-2-carboxylic acid]
TEM-1 β-lactamase
  IC50: 64 nM
AmpC β-lactamase
  IC50: 280 nM
E. coli (TEM-1, Class A); strain GC6265, TEM-1 (Class A)
  MIC (μg/ml; 1:1) E. coli: 8 µg/mL
[1]; strain GC4132, AmpC (Class C)
  MIC (μg/ml; 1:1) S. marcescens: 16 µg/mL

## C[C@]1(/C=C/C#N)[C@H](C(=O)O)N2C(=O)[C@@H](CO)[C@H]2S1(=O)=O [Example 2 (trans), (E)-(2S,3S,5R,6R)-6-Hydroxymethyl-3-methyl-3-(3-nitrilo-propenyl)-4,4,7-trioxo-4-lambda(6)-thia-1-aza-bicyclo[3.2.0]heptane-2-carboxylic acid]
TEM-1 β-lactamase; [2]
  IC50: 74 nM
AmpC β-lactamase; [3]
  IC50: 280 nM
E. coli (TEM-1, Class A); strain GC6265, TEM-1 (Class A)
  MIC (μg/ml; 1:1) E. coli: 16 µg/mL
[1]; strain GC4132, AmpC (Class C)
  MIC (μg/ml; 1:1) S. marcescens: 4 µg/mL

## CCN1CCN(C(=O)N[C@@H](C(=O)N[C@@H]2C(=O)N3[C@@H]2SC(C)(C)[C@@H]3C(=O)O)c2ccccc2)C(=O)C1=O [Piperacillin, reference compound]
E. coli (TEM-1, Class A); Escherichia coli, read-out: MIC (μg/ml) E. coli
  MIC: > 64 µg/mL
[1]; Serratia marcescens, strain GC4132, AmpC (Class C), piperacillin row, no inhibitor named, read-out: MIC (μg/ml) S. marcescens
  MIC: 32 µg/mL

## C[C@]1(Cn2ccnn2)[C@H](C(=O)O)N2C(=O)C[C@H]2S1(=O)=O [Tazobactam, reference compound]
AmpC β-lactamase
  IC50: 47700 nM
E. coli (TEM-1, Class A); strain GC6265, TEM-1 (Class A)
  MIC (μg/ml; 1:1) E. coli: 2 µg/mL
[1]; strain GC4132, AmpC (Class C)
  MIC (μg/ml; 1:1) S. marcescens: 32 µg/mL
